Measurements from patent publication US10272117B2, “Methods of using an activator of cereblon for neural cell expansion and the treatment of central nervous system disorders” (Celgene Corporation, priority 2014, dated 2019).

Test system: zebrafish embryos
Assay: Brain size, morphology and volume of zebrafish embryos (microscopy, MRI)
Assay type: in vivo
Details: for brain size: day 2; for volume of the whole brain compared to untreated fish: MRI; for head size compared to untreated embryos: microscopic pictures
Protocol: An aqueous solution of a 25-mer antisense morpholino oligonucleotide (AMO, Gene Tools, LLC) corresponding to the vicinity of the translation initiation codon in the cDNA sequence of the gene to be knocked down ([…] injection conditions were the same as those used for RNA) was injected into the embryos at the 1-cell stage. The sequence of AMO used for the CRBN gene knockdown is 5′-[…]-3′ (SEQ ID NO: 3). The sequence of AMO used for the Lhx2 gene knockdown is 5′-[…]-3′ (SEQ ID NO:4). The sequence of AMO used for the BRD7 gene knockdown is 5′-[…]-3′ (SEQ ID NO:1). The sequence of AMO used for the Ikaros gene knockdown is 5′-[…]-3′ (SEQ ID NO:2). […]
In order to examine the effect of antagonists of BRD7 on brain growth, BRD7 was knocked down or over-expressed in zebrafish embryos. Knockdown of BRD7 was performed by microinjection of antisense morpholino oligonucleotides (AMO). Overexpression of BRD7 was performed by microinjection of synthesized capped mRNA. AMO or capped mRNA was introduced into one-cell stage embryos by using a nitrogen gas-pressure microinjector IM 300 (Narishige). Conditions for microinjection were as follows: gas pressure was about 15 picosiemens; release period was about 30 to about 50 milliseconds per single injection; concentrations of AMOs and capped mRNA were 400 ng/μl and 250 ng/μl in nuclease-free water, respectively. Capped mRNAs were synthesized in vitro using the mMESSAGE mMachine® in vitro transcription kit (Ambion) from cDNAs cloned into pCS2+ plasmids.
The brains of the embryos were examined for morphology and volume by magnetic resonance imaging (MRI). FIGS. 9A, 9B, and 9C show microscopic pictures of the untreated, the BRD7-knockdown, and the BRD7-overexpressing zebrafish embryos, respectively. FIGS. 9D, 9E, and 9F show fluorescent microscopic pictures of the brain regions of the untreated, the BRD7-knockdown, and the BRD7-overexpressing zebrafish embryos, respectively. As shown in these figures, the BRD7-knockdown zebrafish embryos had bigger heads than the untreated embryos. […] The volume of the whole brain of the BRD7-knockdown fish was much bigger than that of the untreated fish, while for the BRD7-overexpressing fish, the brain volume was smaller.
In order to examine the effect of antagonists of Ikaros on brain growth, Ikaros was knocked down or over-expressed in zebrafish embryos. Knockdown of Ikaros was performed by microinjection of antisense morpholino oligonucleotides (AMO). Overexpression of Ikaros was performed by injection of synthesized capped mRNA. AMO or capped mRNA was introduced into one-cell stage embryos by using a nitrogen gas-pressure microinjector IM 300 (Narishige). Conditions for microinjection were as follows: gas pressure was about 15 picosiemens; release period was about 30 to about 50 milliseconds per single injection; concentrations of AMOs and capped mRNA were 400 ng/μl and 250 ng/μl in nuclease-free water, respectively. Capped mRNAs were synthesized in vitro using the mMESSAGE mMachine® in vitro transcription kit (Ambion) from cDNAs cloned into pCS2+ plasmids.
The brains of the embryos were examined for morphology and volume by magnetic resonance imaging (MRI). FIGS. 15A, 15B, and 15C show microscopic pictures of untreated, Ikaros-knockdown, and Ikaros-overexpressing zebrafish embryos at 55 hpf, respectively. As shown in these figures, the Ikaros-knockdown fish had bigger heads than the untreated embryos. […] The volume of the whole brain of the Ikaros-knockdown fish was much bigger than that of the untreated fish, while for the Ikaros-overexpressing fish, the brain volume was smaller.

Substance | brain size | volume of the whole brain compared to untreated fish | head size compared to untreated embryos | brain development (22 hpf)
5′-AGAGCTGTAGCTGGTTCCCCATTTC-3′ (all phosphorodiamidate morpholino (PMO)) [CRBN-knockdown, 25-mer antisense morpholino oligonucleotide (AMO) used for the CRBN gene knockdown, reference compound] | smaller brains |  |  | 
5′-TGTGTTTCTTGTGCTTTTTGCCCAT-3′ (all phosphorodiamidate morpholino (PMO)) [BRD7-knockdown, 25-mer antisense morpholino oligonucleotide (AMO) used for the BRD7 gene knockdown] |  | much bigger | bigger heads | 
5′-TTCCTGTGCCTCCTCAGTCTCCATC-3′ (all phosphorodiamidate morpholino (PMO)) [Ikaros-knockdown, 25-mer antisense morpholino oligonucleotide (AMO) used for the Ikaros gene knockdown] | enlarged brains | much bigger | bigger heads | macrocephaly
